Assay results from article PMC7659976, “Benzobicyclo[3.2.1]octene Derivatives as a New Class of Cholinesterase Inhibitors” (Molecules, 2020).
Where two headings read alike, the source gives them in different places.

What was measured:
[1] = target: BChE derived from purified human plasma (Homo sapiens, UniProt P06276); experiment: biochemical; conditions: 0.1 M phosphate buffer pH 7.4, 25 °C, ATCh substrate
recombinant human AChE = recombinant human AChE (Homo sapiens, UniProt P22303); experiment: biochemical; format: biochemical; conditions: for IC50: 0.1 M phosphate buffer pH 7.4, 25 °C, ATCh substrate, read-out: Inhibition of human AChE, IC50 ± SEM
recombinant human AChE, sequence (P22303 32-614): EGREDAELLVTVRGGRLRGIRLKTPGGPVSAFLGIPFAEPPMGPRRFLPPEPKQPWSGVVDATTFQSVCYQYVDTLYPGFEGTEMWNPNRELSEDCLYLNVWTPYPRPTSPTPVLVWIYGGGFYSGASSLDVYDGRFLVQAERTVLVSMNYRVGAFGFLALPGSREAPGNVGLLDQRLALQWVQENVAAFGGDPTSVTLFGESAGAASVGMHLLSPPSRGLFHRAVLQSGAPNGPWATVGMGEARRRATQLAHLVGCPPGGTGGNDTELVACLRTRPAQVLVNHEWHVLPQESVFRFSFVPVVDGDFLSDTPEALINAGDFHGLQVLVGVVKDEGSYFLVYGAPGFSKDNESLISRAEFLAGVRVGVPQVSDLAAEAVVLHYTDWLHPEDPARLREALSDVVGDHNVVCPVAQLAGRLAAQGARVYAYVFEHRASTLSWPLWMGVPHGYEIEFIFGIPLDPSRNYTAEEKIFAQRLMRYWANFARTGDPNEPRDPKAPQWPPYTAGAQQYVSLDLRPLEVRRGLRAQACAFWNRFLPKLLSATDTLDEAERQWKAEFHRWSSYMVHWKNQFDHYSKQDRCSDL

BChE [2] = format: biochemical; conditions: compared to huperzine A
BChE [3] = test system: BChE; parameters: method as in doi:10.1016/j.molstruc.2018.05.027, doi:10.3906/kim-1903-74; conditions: photoproducts of Figure 1; read-out: BChE inhibition IC50; cited from earlier work
AChE = test system: AChE; parameters: method as in doi:10.1016/j.molstruc.2018.05.027, doi:10.3906/kim-1903-74; conditions: photoproducts of Figure 1; read-out: AChE inhibition IC50; cited from earlier work
[4] = Table 1, benzobicyclo[3.2.1]octadiene benzylamines, read-out: Inhibition of BChE, IC50 ± SEM
[5] = Table 4, acylated furo-benzobicyclo[3.2.1]octenes/octadienes, read-out: Inhibition of human BChE, IC50 ± SEM
[6] = Table 4, acylated furo-benzobicyclo[3.2.1]octenes/octadienes
[7] = Table 2, oximes and oxime ethers, read-out: Inhibition of BChE, IC50 ± SEM
[8] = Table 3, epoxides, alcohols and ethers, read-out: Inhibition of human BChE, IC50 ± SEM
[9] = Table 3, epoxides, alcohols and ethers

BChE derived from purified human plasma, sequence (P06276 29-602): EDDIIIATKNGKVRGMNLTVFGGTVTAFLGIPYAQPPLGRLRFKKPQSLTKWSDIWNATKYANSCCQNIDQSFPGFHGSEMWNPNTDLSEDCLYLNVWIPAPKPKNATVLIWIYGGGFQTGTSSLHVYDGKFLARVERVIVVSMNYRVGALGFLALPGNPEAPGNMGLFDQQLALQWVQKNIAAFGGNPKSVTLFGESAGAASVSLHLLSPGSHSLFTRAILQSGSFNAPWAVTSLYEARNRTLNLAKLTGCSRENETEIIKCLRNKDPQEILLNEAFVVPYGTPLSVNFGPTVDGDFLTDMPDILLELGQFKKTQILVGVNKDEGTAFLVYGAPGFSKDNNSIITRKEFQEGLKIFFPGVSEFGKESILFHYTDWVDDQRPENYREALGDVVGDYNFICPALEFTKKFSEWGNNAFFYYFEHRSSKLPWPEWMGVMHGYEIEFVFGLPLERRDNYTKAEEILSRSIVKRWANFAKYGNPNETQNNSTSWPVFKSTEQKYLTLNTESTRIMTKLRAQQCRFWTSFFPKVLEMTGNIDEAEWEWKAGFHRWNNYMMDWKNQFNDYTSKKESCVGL

Compound: C1=C[C@H](c2ccc(NCc3ccco3)cc2)[C@H]2C[C@@H]1c1ccccc12 [endo-7, 4-((5R,6S,9S)-6,9-Dihydro-5H-5,9-methanobenzo[7]annulen-6-yl)-N-(fur-2-ylmethyl)aniline]
- IC50 [1, 4]: ≥ 500 µM

Compound: CCC(=O)C/C=C1\C(O)=CC2CC1c1ccccc12 [Compound 53, (Z)-1-((5R,9R)-7-Hydroxy-5,9-dihydro-6H-5,9-methanobenzo[7]annulen-6-ilydene)-pentan-3-one]
- IC50 [1, 5]: 146 ± 30 µM
- IC50 (recombinant human AChE; [6]): 188 ± 133 µM

Compound: Clc1ccc(C2=CCC3CC2c2ccccc23)cc1 (stereo not drawn) [Compound 1]
- IC50 [1, 4]: 260 ± 120 µM

Compound: COc1ccc(CNc2ccc(C3=CCC4CC3c3ccccc34)cc2)cc1 (stereo not drawn) [Compound 17]
- IC50 [1, 4]: 120 ± 64 µM

Compound: CCO/N=C/c1cc2c(o1)CC1CC2c2ccccc21 (stereo not drawn) [Compound 26]
- IC50 [1, 7]: 380 ± 250 µM

Compound: COc1ccccc1CNc1ccc(C2C=CC3CC2c2ccccc23)cc1 (stereo not drawn) [endo-15]
- IC50 [1, 4]: > 500 µM

Compound: C=CCCO/N=C/C(=O)/C=C1\C=CC2CC1c1ccccc12 (stereo not drawn) [Compound 33]
- IC50 [1, 7]: 140 ± 49 µM

Compound: Cc1ccccc1CNc1ccc(C2C=CC3CC2c2ccccc23)cc1 (stereo not drawn) [endo-9]
- IC50 [1, 4]: > 500 µM

Compound: COc1ccc(CNc2ccc(C3C=CC4CC3c3ccccc34)cc2)cc1 (stereo not drawn) [endo-17]
- IC50 [1, 4]: > 500 µM

Compound: Nc1ccc(C2=CCC3CC2c2ccccc23)cc1 (stereo not drawn) [Compound 20]
- IC50 [1, 4]: 182 ± 98 µM

Compound: C/C(O)=C/C=C1\C(O)CC2CC1c1ccccc12 [Compound 51, (5R,9R,Z)-6-((Z)-3-Hydroxybut-2-ene-1-ilydene)-6,7,8,9-tetrahydro-5H-5,9-methano-benzo[7]annulen-7-ol]
- IC50 [1, 5]: > 300 µM
- IC50 (recombinant human AChE; [6]): 8.3 ± 4 µM

Compound: COc1cccc(CNc2ccc(C3C=CC4CC3c3ccccc34)cc2)c1 (stereo not drawn) [endo-16]
- IC50 [1, 4]: > 500 µM

Compound: COc1ccc([C@H]2[C@@H]3OC3[C@@H]3C[C@H]2c2ccccc23)cc1 (stereo partly drawn) [endo-39, (2R,7R,8S,8as)-8-(4-Methoxyphenyl)-1a,7,8,8a-tetrahydro-2H-2,7-methanobenzo[4,5]cyclohepta[1,2-b]oxirene]
- IC50 [1, 8]: 33 ± 6 µM
- IC50 (recombinant human AChE; [9]): > 100 µM

Compound: C1=CC(c2ccncc2)C2CC1c1ccccc12 (stereo not drawn) [endo-2]
- Potency as BChE inhibitor in comparison to huperzine A (BChE [2]): about five times more potent
- IC50 (BChE [3]): 8.8 µM

Compound: CCCOC1C[C@@H]2C[C@@H](c3ccccc32)[C@H]1c1ccc(OC)cc1 (stereo partly drawn) [endo-47, (5R,6S,9S)-6-(4-Methoxyphenyl)-7-propoxy-6,7,8,9-tetrahydro-5H-5,9-methanobenzo[7]annulene]
- IC50 [1, 8]: > 200 µM
- IC50 (recombinant human AChE; [9]): > 100 µM

Compound: CC(C)O/N=C/C/C=C1\C(O)=CC2CC1c1ccccc12 (stereo not drawn) [Compound 31]
- IC50 [1, 7]: 90 ± 40 µM

Compound: CCCO/N=C\c1cc2c(o1)CC1CC2c2ccccc21 (stereo not drawn) [Compound 27, (Z)-9,10-Dihydro-4H-4,9-methanobenzo[4,5]cyclohepta[1,2-b]furan-2-carbaldehyde O-propyl oxime]
- IC50 [1, 7]: 74 ± 19 µM

Compound: CC(=O)O/N=C/C/C=C1\C(O)CC2CC1c1ccccc12 (stereo not drawn) [Compound 34]
- IC50 [1, 7]: 78 ± 31 µM

Compound: Fc1ccccc1CNc1ccc(C2C=CC3CC2c2ccccc23)cc1 (stereo not drawn) [endo-18]
- IC50 [1, 4]: > 500 µM

Compound: C1=C[C@H](c2ccc(NCc3cccs3)cc2)[C@H]2C[C@@H]1c1ccccc12 [endo-8, 4-((5R,6S,9S)-6,9-dihydro-5H-5,9-methanobenzo[7]annulen-6-yl)-N-(thien-2-ylmethyl)aniline]
- IC50 [1, 4]: > 500 µM

Compound: Clc1cccc(CNc2ccc(C3C=CC4CC3c3ccccc34)cc2)c1 (stereo not drawn) [endo-13]
- IC50 [1, 4]: > 500 µM

Compound: c1ccc([C@H]2C3OC3[C@@H]3C[C@H]2c2ccccc23)cc1 (stereo partly drawn) [endo-38, (2R,7R,8S)-8-Phenyl-1a,7,8,8a-tetrahydro-2H-2,7-methanobenzo[4,5]cyclohepta[1,2-b]-oxirene]
- IC50 [1, 8]: 22 ± 5 µM
- Potency for AChE relative to BChE (fold lower) (recombinant human AChE; AChE versus BChE): 3 fold
- IC50 (recombinant human AChE; [9]): 62 ± 8 µM

Compound: Cc1ccccc1CNc1ccc(C2=CCC3CC2c2ccccc23)cc1 (stereo not drawn) [Compound 9]
- IC50 [1, 4]: 240 ± 210 µM

Compound: CC(C)O/N=C/C/C=C1\C(O)CC2CC1c1ccccc12 (stereo not drawn) [Compound 32]
- IC50 [1, 7]: 31 ± 4 µM

Compound: CC(=O)O/N=C/c1cc2c(o1)CC1CC2c2ccccc21 (stereo not drawn) [Compound 30]
- IC50 [1, 7]: 61 ± 36 µM

Compound: C=CCO/N=C/c1cc2c(o1)CC1CC2c2ccccc21 (stereo not drawn) [Compound 29]
- IC50 [1, 7]: 100 ± 32 µM

Compound: CC(C)O/N=C/c1cc2c(o1)CC1CC2c2ccccc21 (stereo not drawn) [Compound 28]
- IC50 [1, 7]: 24 ± 3 µM

Compound: Fc1cccc(CNc2ccc(C3C=CC4CC3c3ccccc34)cc2)c1 (stereo not drawn) [endo-19]
- IC50 [1, 4]: > 500 µM

Compound: Fc1ccc(CNc2ccc(C3C=CC4CC3c3ccccc34)cc2)cc1 (stereo not drawn) [endo-20]
- IC50 [1, 4]: > 500 µM

Compound: C1=C[C@H](c2ccc(NCc3ccccc3)cc2)[C@H]2C[C@@H]1c1ccccc12 [endo-4, N-Benzyl-4-((5R,6S,9S)-6,9-dihydro-5H-5,9-methanobenzo[7]annulen-6-yl)aniline]
- IC50 [1, 4]: 110 ± 77 µM

Compound: O=C1CC2CC(/C1=C/C/C=N/OCCCCl)c1ccccc12 (stereo not drawn) [Compound 35]
- IC50 [1, 7]: 60 ± 11 µM

Compound: Clc1ccc(C2C=CC3CC2c2ccccc23)cc1 (stereo not drawn) [endo-1, 11-(4-Chlorophenyl)tricyclo[6.3.1.0^²,7]dodeca-2,4,6,9-tetraene]
- IC50 (AChE): 17.5 µM

Compound: OCCCOC1CC2CC(c3ccccc32)C1c1ccccc1 [endo-45, 3-(((5R,6S,9S)-6-Phenyl-6,7,8,9-tetrahydro-5H-5,9-methanobenzo[7]annulen-7-il)oxy)propan-1-ol]
- IC50 [1, 8]: 90 ± 24 µM
- IC50 (recombinant human AChE; [9]): > 100 µM

Compound: Clc1ccc(CNc2ccc(C3C=CC4CC3c3ccccc34)cc2)cc1 (stereo not drawn) [endo-14]
- IC50 [1, 4]: > 500 µM

Compound: Cc1ccc(CNc2ccc(C3C=CC4CC3c3ccccc34)cc2)cc1 (stereo not drawn) [endo-11]
- IC50 [1, 4]: ≥ 500 µM

Compound: CCOC1C[C@@H]2C[C@@H](c3ccccc32)[C@H]1c1ccc(OC)cc1 (stereo partly drawn) [endo-46, (5R,6S,9S)-7-Ethoxy-6-(4-methoxyphenyl)-6,7,8,9-tetrahydro-5H-5,9-methanobenzo-[7]annulene]
- IC50 [1, 8]: > 500 µM
- IC50 (recombinant human AChE; [9]): 270 ± 110 µM

Compound: Cc1cccc(CNc2ccc(C3C=CC4CC3c3ccccc34)cc2)c1 (stereo not drawn) [endo-10]
- IC50 [1, 4]: 63 ± 13 µM

Compound: CCCOC1C[C@@H]2C[C@@H](c3ccccc32)[C@H]1c1ccccc1 (stereo partly drawn) [endo-43, (5R,6S,9S)-6-Phenyl-7-propoxy-6,7,8,9-tetrahydro-5H-5,9-methanobenzo[7]annulene]
- IC50 [1, 8]: 17 ± 2 µM
- IC50 (recombinant human AChE; [9]): > 100 µM
